Here are results for one compound from patent US7135494B2, “Antitumoral carbazoles” (Pharma Mar, S.A., priority 2000, dated 2006).

Holding throughout (type): cell-based
For one experiment, the system named is P388 leukemia cell line. The experiment in a line: SRB colorimetric assay of cell growth and viability, P388. The following applies: Mus musculus. As for the experimental part: (§1) Biological tests were carried out on coproverdine (the compound of Example 1 of the present application). A colorimetric type of assay, using sulforhodamine B (SRB) reaction, was used to provide a quantitative measurement of cell growth and viability. The technique described by Skehan, et al., J Natl. Cancer Inst., 1990, 82, 1107, was followed. The reader is also referred to the following references: • Faircloth et al. Journal of Tissue and Culture Methods, 1988, 11, 201. • Monks et al. Articles, 1991, 83, 757. • Mosmann et al. Journal of Immunological Methods, 1983, 65, 55.
(§2) Further biological tests were carried out on coproverdine using similar methods. The results are given using the following cellular response parameters: GI=growth inhibition, TGI=total growth inhibition (cytostatic effect) and LC=cell killing (cytotoxic effect).

In another experiment the test system is Lung (A-549). The experiment in a line: SRB colorimetric assay of cell growth and viability, A-549. As for the experimental part: as §1, §2
Background: The SRB assay estimates cell density from bound dye.

In another experiment the test system is Colon (HT-29). The experiment in a line: SRB colorimetric assay of cell growth and viability, HT-29. The procedure: as §1, §2
Another experiment concerns Melanoma (MEL-28). Briefly: SRB colorimetric assay of cell growth and viability, MEL-28. The following applies: Homo sapiens, SK-MEL-28, 24 wells/16 mm, 10,000 cells/72 h, read-out: IC50 (concentration that causes 50% growth inhibition). As for the experimental part: as §1, §2
The next experiment relates to Prostate (DU-145). Briefly: SRB colorimetric assay of cell growth and viability, DU-145. The following applies: Homo sapiens, 24 wells/16 mm, 10,000 cells/72 h, read-out: IC50 (concentration that causes 50% growth inhibition). As for the experimental part: as §1, §2
[1] abbreviates: 96 wells/9 mm, 5,000 cells/48 h.

Where two headings read alike, the source gives them in different places.

With `COC(=O)c1cccc2c3c(n(O)c12)C(O)(C=O)C=CC3=O` (stereo not drawn) [coproverdine, 8-formyl-8,9-dihydroxy-5-oxo-8,9-dihydro-5H-carbazole-1-carboxylic acid methyl ester], the IC50 in the experiment with P388 leukemia cell line (P388, Leukemia (P-388), 24 wells/16 mm, 10,000 cells/72 h, read-out: IC50 (concentration that causes 50% growth inhibition)) was determined as 1.6 µM; in the experiment on P388 leukemia cell line (P388 leukemia cell line, first test, read-out: IC50), 0.95 µg/mL; with Lung (A-549) (Homo sapiens, A549, 24 wells/16 mm, 10,000 cells/72 h, read-out: IC50 (concentration that causes 50% growth inhibition)) it was 0.3 µM; in the experiment with Colon (HT-29) (Homo sapiens, 24 wells/16 mm, 10,000 cells/72 h, read-out: IC50 (concentration that causes 50% growth inhibition)), 0.3 µM; in the experiment on Melanoma (MEL-28) it was 0.3 µM; in the experiment on Prostate (DU-145), 0.3 µM. The “TGI (total growth inhibition, cytostatic effect)” value in the experiment with Lung (A-549) (setting [1]) was found to be 15 µM; in the experiment on Colon (HT-29) (setting [1]) it was 16 µM. For the same compound, the GI50 in the experiment on Lung (A-549) (Homo sapiens, A549, 96 wells/9 mm, 5,000 cells/48 h, read-out: GI50 (50% growth inhibition with correction for cell OD at time zero)) was 7 µM; in the experiment with Colon (HT-29) (Homo sapiens, 96 wells/9 mm, 5,000 cells/48 h, read-out: GI50 (50% growth inhibition with correction for cell OD at time zero)), 6 µM. In addition, the CC50 with Lung (A-549) (Homo sapiens, A549, 96 wells/9 mm, 5,000 cells/48 h, read-out: LC50 (50% cell killing, cytotoxic effect)) was 50 µM; with Colon (HT-29) (Homo sapiens, 96 wells/9 mm, 5,000 cells/48 h, read-out: LC50 (50% cell killing, cytotoxic effect)), 50 µM.

In general, GI50 refers to the concentration that inhibits growth by half.
